The source made the active and inactive calls. The rule behind the calls is not given here.
Tests used:
[1] = Antiproliferative activity against human EBC1 cells after 72 hrs; settings: EBC-1, 72 h
[2] = molecular target: Hepatocyte growth factor receptor (Homo sapiens) (UniProt P08581); experiment: Inhibition of C-Met (unknown origin) using polu (Glu,Tyr)4:1 substrate at 1 uM after 30 mins incubation by multi-well spectrophotometry
Liver microsome [3] = experiment: Drug formation in beagle dog liver microsomes treated with 2-Fluoro-4-(8-fluoro-3-(quinolin-6-ylmethyl)imidazo[1,2-a]pyridin-6-yl)-N-methylbenzamide after 60 mins by UPLC/Q-TOF MS/MS analysis; format: ADME, Canis lupus familiaris; settings: 1 h
Liver = experiment: Drug formation in CD1 mouse liver microsomes treated with 2-Fluoro-4-(8-fluoro-3-(quinolin-6-ylmethyl)imidazo[1,2-a]pyridin-6-yl)-N-methylbenzamide after 60 mins by UPLC/Q-TOF MS/MS analysis; format: ADME; settings: 1 h
Liver microsome [4] = experiment: Drug formation in human liver microsomes treated with 2-Fluoro-4-(8-fluoro-3-(quinolin-6-ylmethyl)imidazo[1,2-a]pyridin-6-yl)-N-methylbenzamide after 60 mins by UPLC/Q-TOF MS/MS analysis; format: ADME; settings: 1 h
[5] = Drug formation in monkey liver microsomes treated with 2-Fluoro-4-(8-fluoro-3-(quinolin-6-ylmethyl)imidazo[1,2-a]pyridin-6-yl)-N-methylbenzamide after 60 mins by UPLC/Q-TOF MS/MS analysis; format: ADME, Macaca mulatta; settings: rhesus monkey, 1 h
EBC-1 [6] = experiment: Antitumor activity against human EBC1 cells xenografted in po dosed mouse assessed as tumor growth inhibition treated for 3 weeks; format: functional, organism-based
[7] = Antiproliferative activity against human SPCA1 cells after 72 hrs; format: functional, cell-based; settings: SPCA1, 72 h
[8] = molecular target: Tyrosine-protein kinase Mer (Homo sapiens, UniProt Q12866); experiment: Inhibition of Mer (unknown origin) using polu (Glu,Tyr)4:1 substrate after 30 mins incubation by multi-well spectrophotometry
NCI-H520 = experiment: Antiproliferative activity against human NCI-H520 cells after 72 hrs; format: functional, cell-based; settings: NCI-H520, 72 h
NCI-H596 = experiment: Antiproliferative activity against human NCI-H596 cells after 72 hrs; format: functional, cell-based; settings: NCI-H596, 72 h
NCI-H226 = experiment: Antiproliferative activity against human NCI-H226 cells after 72 hrs; format: functional, cell-based; settings: NCI-H226, 72 h
NCI-H358 = experiment: Antiproliferative activity against human NCI-H358 cells after 72 hrs; format: functional, cell-based; settings: NCI-H358, 72 h
NCI-H23 = experiment: Antiproliferative activity against human NCI-H23 cells after 72 hrs; format: functional, cell-based; settings: NCI-H23, 72 h
EBC-1 [9] = experiment: Induction of cell cycle arrest in human EBC1 cells assessed as cell accumulation at G1/S phase at 1 uM after 24 hrs by FACS analysis; format: functional, cell-based
NCI-H1650 = experiment: Antiproliferative activity against human NCI-H1650 cells after 72 hrs; format: functional, cell-based; settings: NCI-H1650, 72 h
[10] = Half life in Sprague-Dawley rat at 10 mg/kg, iv; format: ADME, organism-based; settings: in vivo
Liver microsome [11] = experiment: Drug metabolism in human liver microsomes assessed as 2-Fluoro-4-(8-fluoro-3-(hydroxy(quinolin-6-yl)methyl)imidazo[1,2-a]pyridin-6-yl)-N-methylbenzamide metabolite formation after 60 mins by UPLC/Q-TOF MS/MS analysis; format: ADME; settings: 1 h
[12] = molecular target: Tyrosine-protein kinase receptor TYRO3 (Homo sapiens, UniProt Q06418); experiment: Inhibition of Tyro3 (unknown origin) using polu (Glu,Tyr)4:1 substrate after 30 mins incubation by multi-well spectrophotometry
NCI-H1299 = experiment: Antiproliferative activity against human NCI-H1299 cells after 72 hrs; format: functional, cell-based; settings: NCI-H1299, 72 h
NCI-H292 = experiment: Antiproliferative activity against human NCI-H292 cells after 72 hrs; format: functional, cell-based; settings: NCI-H292, 72 h
[13] = Antiproliferative activity against human SNU5 cells after 72 hrs; format: functional, cell-based; settings: SNU-5, 72 h
[14] = Antiproliferative activity against human SGC7901 cells after 72 hrs; format: functional, cell-based; settings: SGC-7901, 72 h
NCI-H661 = experiment: Antiproliferative activity against human NCI-H661 cells after 72 hrs; format: functional, cell-based; settings: NCI-H661, 72 h
Mus musculus = experiment: Toxicity in human EBC1 cells xenografted in mouse assessed as weight losses treated at 50 to 100 mg/kg, po for 3 weeks; format: organism-based; settings: in vivo, 504 h
[15] = Antiproliferative activity against human SPCA4 cells after 72 hrs; format: functional, cell-based; settings: SPC-A4, 72 h
EBC-1 [16] = experiment: Induction of cell cycle arrest in human EBC1 cells assessed as cell accumulation at G1 phase at 1 uM after 24 hrs by FACS analysis (reference value: 52.95%); format: functional
HT-29 = experiment: Antiproliferative activity against human HT-29 cells after 72 hrs; format: functional, cell-based; settings: HT-29, 72 h
BaF3 = experiment: Antiproliferative activity against mouse BAF3/TPR-Met cells after 72 hrs; format: functional, cell-based; settings: BaF3, 72 h
MDCK = experiment: Reduction in HGF-induced cell scattering of MDCK cells after 24 hrs by microscopy; format: functional, cell-based; settings: Canis lupus familiaris
[17] = Antiproliferative activity against human MKN45 cells after 72 hrs; format: functional, cell-based; settings: MKN-45, 72 h
NCI-H1975 = experiment: Antiproliferative activity against human NCI-H1975 cells after 72 hrs; format: functional, cell-based; settings: NCI-H1975, 72 h
Liver microsome [18] = experiment: Drug formation in Sprague-Dawley rat liver microsomes treated with 2-Fluoro-4-(8-fluoro-3-(quinolin-6-ylmethyl)imidazo[1,2-a]pyridin-6-yl)-N-methylbenzamide after 60 mins by UPLC/Q-TOF MS/MS analysis; format: ADME; settings: 1 h
MGC-803 = experiment: Antiproliferative activity against human MGC803 cells after 72 hrs; format: functional, cell-based; settings: MGC-803, 72 h
[19] = Oral bioavailability in Sprague-Dawley rat at 20 mg/kg; format: ADME, organism-based; settings: in vivo
SNU1 = experiment: Antiproliferative activity against human SNU1 cells after 72 hrs; format: functional, cell-based; settings: SNU1, 72 h
[20] = Drug metabolism in monkey liver microsomes assessed as 2-Fluoro-4-(8-fluoro-3-(hydroxy(quinolin-6-yl)methyl)imidazo[1,2-a]pyridin-6-yl)-N-methylbenzamide metabolite formation after 60 mins by UPLC/Q-TOF MS/MS analysis; format: ADME, Macaca mulatta; settings: rhesus monkey, 1 h
[21] = Antitumor activity against human EBC1 cells xenografted in mouse assessed as tumor growth inhibition treated at 100 mg/kg, po for 3 weeks; format: functional; settings: EBC-1, po, 504 h
[22] = Antitumor activity against human EBC1 cells xenografted in mouse assessed as tumor growth inhibition treated at 50 mg/kg, po for 3 weeks; format: functional; settings: EBC-1, po, 504 h, read-out: INH
Liver microsome [23] = experiment: Drug metabolism in beagle dog liver microsomes assessed as 2-Fluoro-4-(8-fluoro-3-(hydroxy(quinolin-6-yl)methyl)imidazo[1,2-a]pyridin-6-yl)-N-methylbenzamide metabolite formation after 60 mins by UPLC/Q-TOF MS/MS analysis; format: ADME, Canis lupus familiaris; settings: 1 h
[24] = Drug metabolism in CD1 mouse liver microsomes assessed as 2-Fluoro-4-(8-fluoro-3-(hydroxy(quinolin-6-yl)methyl)imidazo[1,2-a]pyridin-6-yl)-N-methylbenzamide metabolite formation after 60 mins by UPLC/Q-TOF MS/MS analysis; format: ADME; settings: 1 h
AGS = experiment: Antiproliferative activity against human AGS cells after 72 hrs; format: functional, cell-based
NCI-H441 [25] = experiment: Inhibition of HGF-induced human NCI-H441 cell migration at 500 nM after 24 hrs by spectrophotometry; format: functional, cell-based
[26] = Antiproliferative activity against human Calu3 cells after 72 hrs; format: functional, cell-based; settings: Calu-3, 72 h
[27] = Antiproliferative activity against human MKN1 cells after 72 hrs; format: functional, cell-based; settings: MKN-1, 72 h
[28] = molecular target: Voltage-gated inwardly rectifying potassium channel KCNH2 (Homo sapiens, UniProt Q12809); experiment: Inhibition of human ERG channel
[29] = Antiproliferative activity against human MKN74 cells after 72 hrs; format: functional, cell-based; settings: MKN-74, 72 h
A549 = experiment: Antiproliferative activity against human A549 cells after 72 hrs; format: functional, cell-based; settings: A549, 72 h
NCI-H441 [30] = experiment: Inhibition of HGF-induced human NCI-H441 cell invasion at 500 nM after 24 hrs by spectrophotometry; format: functional, cell-based
[31] = molecular target: Tyrosine-protein kinase receptor UFO (Homo sapiens, UniProt P30530); experiment: Inhibition of Axl (unknown origin) using polu (Glu,Tyr)4:1 substrate after 30 mins incubation by multi-well spectrophotometry
[32] = Antiproliferative activity against human BGC823 cells after 72 hrs; format: functional, cell-based; settings: BGC-823, 72 h
Liver microsome [33] = experiment: Drug metabolism in Sprague-Dawley rat liver microsomes assessed as 2-Fluoro-4-(8-fluoro-3-(hydroxy(quinolin-6-yl)methyl)imidazo[1,2-a]pyridin-6-yl)-N-methylbenzamide metabolite formation after 60 mins by UPLC/Q-TOF MS/MS analysis; format: ADME; settings: 1 h
[34] = Antiproliferative activity against human SNU16 cells after 72 hrs; format: functional, cell-based; settings: SNU-16, 72 h

Chain of Hepatocyte growth factor receptor (Homo sapiens) (P08581 whole entry): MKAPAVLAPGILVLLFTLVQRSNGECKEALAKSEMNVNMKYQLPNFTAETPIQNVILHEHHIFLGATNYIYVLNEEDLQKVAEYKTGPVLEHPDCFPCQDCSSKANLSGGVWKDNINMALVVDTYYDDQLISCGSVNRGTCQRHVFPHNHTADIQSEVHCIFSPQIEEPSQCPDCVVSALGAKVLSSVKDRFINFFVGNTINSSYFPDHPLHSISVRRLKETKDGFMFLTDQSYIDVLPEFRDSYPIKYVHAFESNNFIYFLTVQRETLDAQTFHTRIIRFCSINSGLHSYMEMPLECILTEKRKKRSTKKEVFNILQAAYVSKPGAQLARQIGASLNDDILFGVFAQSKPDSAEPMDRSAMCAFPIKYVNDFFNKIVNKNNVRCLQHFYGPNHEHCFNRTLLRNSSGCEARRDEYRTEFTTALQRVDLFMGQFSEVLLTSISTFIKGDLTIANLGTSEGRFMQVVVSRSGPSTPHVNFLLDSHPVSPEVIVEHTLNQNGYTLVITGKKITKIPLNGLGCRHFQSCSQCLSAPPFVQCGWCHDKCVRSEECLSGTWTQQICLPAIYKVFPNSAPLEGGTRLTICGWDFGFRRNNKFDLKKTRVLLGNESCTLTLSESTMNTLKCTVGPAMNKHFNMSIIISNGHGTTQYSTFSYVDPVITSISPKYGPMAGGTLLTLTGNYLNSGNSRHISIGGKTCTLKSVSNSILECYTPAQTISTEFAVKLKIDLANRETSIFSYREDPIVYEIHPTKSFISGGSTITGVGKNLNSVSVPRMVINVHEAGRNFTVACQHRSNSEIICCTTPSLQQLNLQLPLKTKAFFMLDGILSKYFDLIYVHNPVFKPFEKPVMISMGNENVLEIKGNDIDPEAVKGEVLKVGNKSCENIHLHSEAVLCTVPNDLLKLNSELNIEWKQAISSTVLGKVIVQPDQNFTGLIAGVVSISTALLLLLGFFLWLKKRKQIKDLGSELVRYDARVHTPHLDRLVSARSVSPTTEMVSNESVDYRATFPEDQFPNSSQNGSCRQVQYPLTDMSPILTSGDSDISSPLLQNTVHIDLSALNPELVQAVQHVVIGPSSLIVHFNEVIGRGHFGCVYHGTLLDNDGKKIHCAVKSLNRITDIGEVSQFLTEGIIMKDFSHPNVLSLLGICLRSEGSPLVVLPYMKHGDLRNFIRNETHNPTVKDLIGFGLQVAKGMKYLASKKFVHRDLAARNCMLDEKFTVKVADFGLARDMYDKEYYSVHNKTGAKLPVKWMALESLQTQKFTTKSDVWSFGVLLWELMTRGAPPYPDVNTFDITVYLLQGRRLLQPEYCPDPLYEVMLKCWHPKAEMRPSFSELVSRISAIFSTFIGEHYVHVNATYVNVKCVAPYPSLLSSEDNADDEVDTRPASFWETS
Chain of Voltage-gated inwardly rectifying potassium channel KCNH2 (Q12809 whole entry): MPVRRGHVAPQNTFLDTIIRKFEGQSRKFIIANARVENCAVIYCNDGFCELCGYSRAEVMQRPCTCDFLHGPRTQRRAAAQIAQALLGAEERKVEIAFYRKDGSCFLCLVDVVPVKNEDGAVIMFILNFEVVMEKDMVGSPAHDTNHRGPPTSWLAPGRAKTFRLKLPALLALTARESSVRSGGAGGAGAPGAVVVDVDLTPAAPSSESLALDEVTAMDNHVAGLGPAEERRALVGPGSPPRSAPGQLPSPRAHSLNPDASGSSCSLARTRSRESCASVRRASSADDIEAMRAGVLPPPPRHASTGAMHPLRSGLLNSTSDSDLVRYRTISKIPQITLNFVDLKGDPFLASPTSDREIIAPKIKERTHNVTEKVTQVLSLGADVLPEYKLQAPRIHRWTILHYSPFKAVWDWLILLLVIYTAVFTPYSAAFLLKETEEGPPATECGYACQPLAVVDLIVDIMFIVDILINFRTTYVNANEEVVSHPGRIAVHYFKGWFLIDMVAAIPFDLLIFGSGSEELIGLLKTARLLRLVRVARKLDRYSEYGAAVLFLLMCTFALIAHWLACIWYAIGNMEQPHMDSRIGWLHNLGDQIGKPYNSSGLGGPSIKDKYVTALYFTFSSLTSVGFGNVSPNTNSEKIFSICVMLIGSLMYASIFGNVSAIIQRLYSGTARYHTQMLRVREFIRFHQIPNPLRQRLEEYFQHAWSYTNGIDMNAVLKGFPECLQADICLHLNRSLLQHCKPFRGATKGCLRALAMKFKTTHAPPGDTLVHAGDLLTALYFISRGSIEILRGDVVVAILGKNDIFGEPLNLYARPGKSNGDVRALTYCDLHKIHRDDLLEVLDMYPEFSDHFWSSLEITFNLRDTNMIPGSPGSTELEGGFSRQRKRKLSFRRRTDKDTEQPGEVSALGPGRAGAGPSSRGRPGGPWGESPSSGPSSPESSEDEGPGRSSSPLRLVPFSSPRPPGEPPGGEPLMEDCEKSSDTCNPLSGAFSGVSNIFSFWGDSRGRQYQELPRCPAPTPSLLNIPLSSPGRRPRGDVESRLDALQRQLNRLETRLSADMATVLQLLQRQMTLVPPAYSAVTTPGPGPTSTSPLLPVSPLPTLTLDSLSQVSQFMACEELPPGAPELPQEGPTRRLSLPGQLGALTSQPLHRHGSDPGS
Chain of Tyrosine-protein kinase receptor UFO (P30530 whole entry): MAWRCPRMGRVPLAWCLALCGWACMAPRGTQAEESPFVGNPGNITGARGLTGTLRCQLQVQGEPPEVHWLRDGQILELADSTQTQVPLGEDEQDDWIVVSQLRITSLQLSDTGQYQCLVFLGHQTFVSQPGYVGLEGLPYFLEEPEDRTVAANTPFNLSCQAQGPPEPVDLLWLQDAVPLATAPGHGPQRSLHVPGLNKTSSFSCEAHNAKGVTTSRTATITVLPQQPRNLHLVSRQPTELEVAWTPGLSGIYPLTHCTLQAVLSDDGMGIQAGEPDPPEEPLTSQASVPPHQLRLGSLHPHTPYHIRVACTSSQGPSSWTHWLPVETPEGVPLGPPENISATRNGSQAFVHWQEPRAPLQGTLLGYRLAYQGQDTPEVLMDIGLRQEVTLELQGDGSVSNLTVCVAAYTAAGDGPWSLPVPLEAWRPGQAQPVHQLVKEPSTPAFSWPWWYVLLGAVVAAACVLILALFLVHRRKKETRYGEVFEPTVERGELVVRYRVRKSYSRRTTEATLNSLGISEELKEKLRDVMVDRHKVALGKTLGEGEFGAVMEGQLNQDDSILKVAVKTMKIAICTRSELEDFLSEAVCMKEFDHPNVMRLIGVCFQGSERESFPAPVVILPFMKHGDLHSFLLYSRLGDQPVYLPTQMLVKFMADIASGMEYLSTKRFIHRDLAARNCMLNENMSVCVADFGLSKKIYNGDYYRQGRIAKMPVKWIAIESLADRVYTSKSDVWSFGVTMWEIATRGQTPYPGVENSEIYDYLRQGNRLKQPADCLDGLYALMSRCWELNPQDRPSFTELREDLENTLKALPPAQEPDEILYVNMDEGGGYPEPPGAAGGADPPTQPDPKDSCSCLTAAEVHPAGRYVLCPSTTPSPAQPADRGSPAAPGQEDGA
Chain of Tyrosine-protein kinase receptor TYRO3 (Q06418 whole entry): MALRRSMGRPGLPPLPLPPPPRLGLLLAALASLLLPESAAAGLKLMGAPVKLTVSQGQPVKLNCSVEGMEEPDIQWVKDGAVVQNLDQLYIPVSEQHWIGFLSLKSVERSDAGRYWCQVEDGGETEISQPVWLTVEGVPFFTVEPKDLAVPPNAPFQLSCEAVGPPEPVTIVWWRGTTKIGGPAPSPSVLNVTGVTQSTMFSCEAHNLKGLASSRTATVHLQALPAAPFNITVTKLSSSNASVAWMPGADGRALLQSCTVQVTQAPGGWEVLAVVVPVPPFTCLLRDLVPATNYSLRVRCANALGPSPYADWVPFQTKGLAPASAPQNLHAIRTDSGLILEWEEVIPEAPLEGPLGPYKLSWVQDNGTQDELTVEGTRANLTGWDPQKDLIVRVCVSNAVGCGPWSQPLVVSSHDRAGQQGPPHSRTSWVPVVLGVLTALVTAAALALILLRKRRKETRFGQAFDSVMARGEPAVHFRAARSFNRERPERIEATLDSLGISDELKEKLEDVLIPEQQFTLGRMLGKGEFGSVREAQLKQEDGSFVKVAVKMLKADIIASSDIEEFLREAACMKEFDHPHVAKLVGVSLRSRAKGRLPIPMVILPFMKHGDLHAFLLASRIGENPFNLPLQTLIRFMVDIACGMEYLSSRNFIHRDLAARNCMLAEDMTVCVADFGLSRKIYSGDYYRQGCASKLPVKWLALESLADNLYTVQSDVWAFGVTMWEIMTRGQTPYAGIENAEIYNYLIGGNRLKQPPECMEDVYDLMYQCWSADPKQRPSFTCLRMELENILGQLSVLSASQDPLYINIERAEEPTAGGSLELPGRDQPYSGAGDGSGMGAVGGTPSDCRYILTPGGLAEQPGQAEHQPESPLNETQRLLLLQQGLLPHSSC

For `CCO/N=C(\C)c1cc(F)c2ncc(Cc3ccc4ncccc4c3)n2c1`, which IC50 [1] is on record?
Its IC50 is 1480 nM.

For `CN(C)CCNC(=O)c1ccc(-c2cc(F)c3ncc(Cc4ccc5ncccc5c4)n3c2)cc1F`, which IC50 [1] is on record?
Its IC50 is 49 nM.

With `O=C(NC1CCCNC1)c1ccc(-c2cc(F)c3ncc(Cc4ccc5ncccc5c4)n3c2)cc1F` (stereo not drawn) as the compound, how does the IC50 [1] read?
The IC50 was 138 nM.

Which IC50 [1] does the source give for `CNC(=O)c1cccc(-c2cc(F)c3ncc(Cc4ccc5ncccc5c4)n3c2)c1` here?
The IC50 was 400 nM.

Which inhibition [2] does the source give for `Cn1cc(-c2cn3c(Cc4ccc5ncccc5c4)cnc3cc2C(F)(F)F)cn1` here?
Its inhibition is 5.9%.

With `N#Cc1cccc(-c2cc(F)c3ncc(Cc4ccc5ncccc5c4)n3c2)c1` as the compound, how does the IC50 [1] read?
The IC50 was 107 nM.

What does the source list for `CNC(=O)c1ccc(-c2cc(F)c3ncc(C(O)c4ccc5ncccc5c4)n3c2)cc1F` (stereo not drawn)?
Drug metabolism (Liver microsome [3]): metabolite_detected; Drug metabolism (Liver): metabolite_detected; Drug metabolism (Liver microsome [4]): metabolite_detected; IC50 [1]: 3020 nM; Drug metabolism [5]: metabolite_detected

Which IC50 [1] does the source give for `CNC(=O)c1cc(-c2cc(F)c3ncc(Cc4ccc5ncccc5c4)n3c2)ccc1Cl` here?
The IC50 was 946 nM.

For `O=C(NC1CCOCC1)c1ccc(-c2cc(F)c3ncc(Cc4ccc5ncccc5c4)n3c2)cc1F`, which IC50 [1] is on record?
The IC50 was 70.5 nM.

Which IC50 [1] does the source give for `CN1CCN(C(=O)c2ccc(-c3cc(F)c4ncc(Cc5ccc6ncccc6c5)n4c3)cc2F)CC1` here?
The IC50 was 869 nM.

With `O=C(NCCN1CCOCC1)c1ccc(-c2cc(F)c3ncc(Cc4ccc5ncccc5c4)n3c2)cc1F` as the compound, how does the IC50 [1] read?
The IC50 was 52 nM.

For `Cn1cc(-c2cc(C(F)(F)F)c3ncc(Cc4ccc5ncccc5c4)n3c2)cn1`, which inhibition [2] is on record?
The inhibition was 9.6%.

What does the source list for `CNC(=O)c1ccc(-c2cc(F)c3ncc(Cc4ccc5ncccc5c4)n3c2)cc1F`?
TGI (EBC-1 [6]): Dose-dependent effect; IC50 [7]: > 50000 nM; IC50 [8]: > 10000 nM; IC50 (NCI-H520): > 50000 nM; IC50 (NCI-H596): > 50000 nM; IC50 (NCI-H226): > 50000 nM; IC50 (NCI-H358): > 50000 nM; IC50 (NCI-H23): > 50000 nM; Activity (EBC-1 [9]): Active; IC50 (NCI-H1650): > 50000 nM; half-life [10]: 1.17 h; Drug metabolism (Liver microsome [11]): metabolite_detected; IC50 [12]: > 10000 nM; IC50 (NCI-H1299): > 50000 nM; IC50 (NCI-H292): > 50000 nM; IC50 [13]: 70.2 nM; IC50 [14]: > 50000 nM; IC50 (NCI-H661): > 50000 nM; Activity (Mus musculus): Non-toxic; IC50 [15]: > 50000 nM; Activity (EBC-1 [16]): 81.84%; IC50 (HT-29): > 50000 nM; IC50 (BaF3): 203 nM; inhibition (MDCK): Dose-dependent effect; IC50 [17]: 90.9 nM; IC50 (NCI-H1975): > 50000 nM; Drug metabolism (Liver microsome [18]): metabolite_notdetected; IC50 (MGC-803): > 50000 nM; bioavailability [19]: 29.4%; IC50 (SNU1): > 50000 nM; Drug metabolism [20]: metabolite_detected; inhibition in vivo at 100 mg/kg [21]: 75%; inhibition in vivo at 50 mg/kg [22]: 62.9%; Drug metabolism (Liver microsome [23]): metabolite_detected; Drug metabolism [24]: metabolite_detected; IC50 (AGS): > 50000 nM; inhibition (NCI-H441 [25]): Active; IC50 [26]: > 50000 nM; IC50 [27]: > 50000 nM; IC50 [28]: 93600 nM; IC50 [29]: > 50000 nM; IC50 (A549): > 50000 nM; IC50 [1]: 45 nM; inhibition (NCI-H441 [30]): Active; IC50 [31]: > 10000 nM; IC50 [32]: > 50000 nM; Drug metabolism (Liver microsome [33]): metabolite_notdetected; IC50 [34]: > 50000 nM

With `Cn1cc(-c2cn3c(Cc4ccc5ncccc5c4)cnc3cc2Cl)cn1` as the compound, how does the inhibition [2] read?
The inhibition was 24.5%.

For `Cn1cc(-c2cc(F)c3ncc(Cc4ccc5ncccc5c4)n3c2)cn1`, which IC50 [1] is on record?
Its IC50 is 270 nM.

Which IC50 [1] does the source give for `Fc1cc(-c2cnn(C3CCNCC3)c2)cn2c(Cc3ccc4ncccc4c3)cnc12` here?
Its IC50 is 1460 nM.

With `N#Cc1ccc(-c2cc(F)c3ncc(Cc4ccc5ncccc5c4)n3c2)cn1` as the compound, how does the IC50 [1] read?
Its IC50 is 188 nM.
